Drawing on patent US20250263424A1, “KRAS INHIBITORS” (Bristol-Myers Squibb Company, priority 2022, published 2025), this text covers IC50 for 8 molecules.

Where two headings read alike, the source gives them in different places.

The target of the experiment is Recombinant GMPPNP-loaded KRAS G12C (KRAS-G12C(ON), active form) (Homo sapiens, UniProt P01116, G12C). The experiment in a line: KRAS G12C RAF Disruption Assay (HTRF). The conditions noted are these: GMPPNP-loaded KRAS G12C 5 nM, GST-RAF1 RBD 9 nM, read-out: KRASG12C RAF Disruption Assay (IC50). The class given is biochemical. The method, then:
This is a functional assay that measures activity of compounds against […]., the active form of KRAS G12C. Recombinant GMPPNP-loaded KRAS G12C (5 nM) was treated with compound at room temperature for 20 minutes in assay buffer (50 mM Tris pH 7.5, 100 mM NaCl, 1 mM MgCl2, 1 mM DTT, 100 μg/ml BSA). Recombinant GST-RAF1 RBD (9 nM) was added, and the reaction mixture was incubated for 20 minutes. SA-Tb (0.25 nM) was added, and the reaction mixture was incubated for 3 hours. HTRF signal was measured (PerkinElmer Envision), the signal ratio (λem 520/λem 495) was calculated, and IC50 values were calculated from the dose-response curve.
In general terms: TR-FRET usually uses a lanthanide donor and a delayed reading to cut background.

Recombinant GMPPNP-loaded KRAS G12C (KRAS-G12C(ON), active form), sequence (P01116 1-188 isoform P01116-2 G12C): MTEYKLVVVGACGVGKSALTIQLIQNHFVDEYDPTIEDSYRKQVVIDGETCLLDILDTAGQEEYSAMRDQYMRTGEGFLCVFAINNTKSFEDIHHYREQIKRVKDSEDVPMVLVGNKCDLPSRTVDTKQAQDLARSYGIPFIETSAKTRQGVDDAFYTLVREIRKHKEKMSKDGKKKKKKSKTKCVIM

With `CN1CCC[C@H]1COc1nc(N2CCN(C(=O)/C(F)=C/c3ccccn3)[C@@H](CC#N)C2)c2ccc(-c3cc(Cl)ccc3OC(F)(F)F)c(F)c2n1` [Example 65, 2-((S)-4-(7-(5-chloro-2-(trifluoromethoxy)phenyl)-8-fluoro-2-(((S)-1-methylpyrrolidin-2-yl)methoxy)quinazolin-4-yl)-1-((Z)-2-fluoro-3-(pyridin-2-yl)acryloyl)piperazin-2-yl)acetonitrile], the half-inhibitory concentration (IC50) – broadly, the point on the concentration scale where inhibition reaches its midpoint – (values in nM) was 2100 nM.

Consider `CN1CCC[C@H]1COc1nc(N2CCN(C(=O)/C(F)=C/c3nccs3)[C@@H](CC#N)C2)c2ccc(-c3c(O)cccc3F)c(F)c2n1` [Example 56, 2-((2S)-1-((Z)-2-fluoro-3-(thiazol-2-yl)acryloyl)-4-(8-fluoro-7-(2-fluoro-6-hydroxyphenyl)-2-(((S)-1-methylpyrrolidin-2-yl)methoxy)quinazolin-4-yl)piperazin-2-yl)acetonitrile], for which the IC50 (values in nM) is 270 nM.

For `Cc1cc(N)nc(-c2c(Cl)cc3c(N4C[C@H]5CC[C@@H]4[C@@H]5NC(=O)/C(F)=C/c4nccs4)nc(OC[C@@H]4CCCN4C)nc3c2F)c1C(F)(F)F` (atropisomer, axis not shown; (M)) [Example 49, (2Z)-N-[(1R,4R,7R)-2-[(7M)-7-[6-amino-4-methyl-3-(trifluoromethyl)pyridin-2-yl]-6-chloro-8-fluoro-2-{[(2S)-1-methylpyrrolidin-2-yl]methoxy}quinazolin-4-yl]-2-azabicyclo[2.2.1]heptan-7-yl]-2-fluoro-3-(1,3-thiazol-2-yl)prop-2-enamide], under “values given in μM”, the IC50 was 2260 nM.

For `CN1CCC[C@H]1COc1nc(N2CCN(C(=O)/C(F)=C/c3nccs3)[C@@H](CC#N)C2)c2ccc(-c3cc(Cl)ccc3OC(F)(F)F)c(F)c2n1` [Example 66, 2-((S)-4-(7-(5-chloro-2-(trifluoromethoxy)phenyl)-8-fluoro-2-(((S)-1-methylpyrrolidin-2-yl)methoxy)quinazolin-4-yl)-1-((Z)-2-fluoro-3-(thiazol-2-yl)acryloyl)piperazin-2-yl)acetonitrile], the IC50 (values in nM) was 3200 nM.

Consider `Cc1cc(N)nc(-c2c(Cl)cc3c(N4C[C@H](C)N(C(=O)/C(F)=C/c5nccs5)C[C@H]4C)nc(OCC45CCCN4CC(F)C5)nc3c2F)c1C(F)(F)F` (stereo partly drawn) [Example 19, (Z)-1-((2S,5R)-4-((7M)-7-(6-amino-4-methyl-3-(trifluoromethyl)pyridin-2-yl)-6-chloro-8-fluoro-2-((2-fluorotetrahydro-1H-pyrrolizin-7a(5H)-yl)methoxy)quinazolin-4-yl)-2,5-dimethylpiperazin-1-yl)-2-fluoro-3-(thiazol-2-yl)prop-2-en-1-one], for which the IC50 (values given in μM) turned out to be 3200 nM.

In the case of `N#CC[C@H]1CN(c2nc(OC[C@@]34CCCN3C[C@H](F)C4)nc3c(F)c(-c4cccc5cccc(C#N)c45)ccc23)CCN1C(=O)/C(F)=C/c1ccccn1` [Example 78, 8-(4-((S)-3-(cyanomethyl)-4-((Z)-2-fluoro-3-(pyridin-2-yl)acryloyl)piperazin-1-yl)-8-fluoro-2-(((2R,7aS)-2-fluorotetrahydro-1H-pyrrolizin-7a(5H)-yl)methoxy)quinazolin-7-yl)-1-naphthonitrile], the half-maximal inhibitory concentration (IC50) (values in nM) was determined as 240 nM.

Consider `C#Cc1c(F)ccc2cc(O)cc(-c3ccc4c(N5C[C@H]6CC[C@@H](C5)N6C(=O)/C(F)=C/c5ccccn5)nc(OC[C@]56CCC[C@H]5N(C)CCC6)nc4c3F)c12` [Example 27, (Z)-1-((1R,5S)-3-(7-(8-ethynyl-7-fluoro-3-hydroxynaphthalen-1-yl)-8-fluoro-2-(((4aS,7aR)-1-methyloctahydro-4aH-cyclopenta[b]pyridin-4a-yl)methoxy)quinazolin-4-yl)-3,8-diazabicyclo[3.2.1]octan-8-yl)-2-fluoro-3-(pyridin-2-yl)prop-2-en-1-one], for which, under “values in nM”, the IC50 worked out at 6.4 nM.

Regarding `C[C@H]1CN(C(=O)/C(F)=C/c2ccccn2)CCN1c1nc(OC[C@@H]2CCCN2C)nc2c(F)c(-c3cccc4cccc(Cl)c34)c(Cl)cc12` (single isomer, unassigned) [Example 3], the IC50 (values given in μM) came to 5500 nM.
